This is an account of results in patent US20110294138A1, “METHODS FOR SIMULTANEOUSLY MEASURING THE IN VIVO METABOLISM OF TWO OR MORE ISOFORMS OF A BIOMOLECULE” (THE WASHINGTON UNIVERSITY, priority 2008, published 2011).

For this assay, the system named is immortalized knock-in murine astrocytes expressing human ApoE4. Put plainly: Production (stable isotope labeling kinetics, SILT) of human ApoE4 in immortalized knock-in murine astrocytes. The format is cell-based. Particulars: 50% 13C6-leucine in media, media collected over 48 hours, n=3; calculated from initial slope and plateau TTR. The protocol: FIG. 5 presents the production of human ApoE4 in immortalized knock-in murine astrocytes. ApoE4 expressing astrocytes were grown to confluency. ^13C6-Leucine was added to the media at time t=0 bringing the total percent ^13C6-leucine to 50%. Media was collected over 48 hours. ApoE was captured using liposorb, reduced and alkylated, and digested with trypsin. ApoE4 specific peptides were analyzed by nano-LC MS/MS. The SILT method was used to determine the incorporation of ^13C6-leucine into ApoE (n=3, error bars SEM). The fractional synthetic rate (FSR) of ApoE4 was calculated using initial slope and plateau tracer to tracee ratio (TTR) of 8.5% per hour. […]
ApoE was isolated either by overnight incubation with anti-ApoE antibody (WUE4) coupled to CNBr-activated Sepharose beads, or incubation for 30 min (4° C.) with PHM-Liposorb™ (Calbiochem, San Diego, Calif.). […] After desalting using Nu-tip carbon tips (Glygen Corp., Columbia, Md.), the supernatant containing ApoE peptides was analyzed by nano-LC tandem MS (Thermo-Finnigan LTQ equipped with a New Objective nanoflow ESI source) as previously described (Bateman et al., 2006, Nature Medicine, 12:856-861). The samples were quantitated using the stable-isotope tandem labeled (SILT) mass spectroscopy method as described by Bateman et al. 2007 J Am Soc Mass Spectrum 18(6):[…]. […]

Consider “ApoE4: Human apolipoprotein E isoform ApoE4 (arg112, arg158), endogenous protein whose metabolism is measured”, for which the “fractional synthetic rate (FSR) of ApoE4” value was 8.5 % per hour.
